According to patent US20120225817A1, “THERAPEUTIC AGENT FOR GASTROINTESTINAL DISEASE” (Santen Pharmaceutical Co., Ltd., priority 2009, published 2012):
Residues, ends and D or L forms follow the SMILES beside them.

System: Caco-2 cells
Assay: Effect on migration of gastrointestinal mucosal tissue cells (cut in a confluent Caco-2 cell layer, cell spreading area)
Assay type: cell-based, human
Details: for Migration of Caco-2 cells (%): 18 hours, control = 100%, mean ± standard error, 8 samples
Description: An effect on cell migration was studied by the following method using Caco-2 cells which are a human colon cancer cell line.
In a 24-well plate coated with type IV collagen, Caco-2 cells were seeded at […] cells per well and cultured to confluence in a DMEM medium containing 10% FBS. A cut was formed in the cell layer using a razor blade, and a cell-free region was created with a cotton swab. After washing with a DMEM medium containing 1% FBS, the cells were cultured for 18 hours in the same medium containing each test compound under conditions of 37° C. and 5% CO2. The effect on the migration of Caco-2 cells was studied by taking pictures before adding the test compound and at 18 hours after the addition of the test compound and comparing cell spreading areas in a fixed region at 18 hours after the addition of the test compounds. Further, Caco-2 cells cultured in the same manner in the medium without containing the test compound were used as a control.
The results of the case where a single agent of SSSR was used are shown in Table 1, and the results of the case where SSSR and FGLM-NH2 were used in combination are shown in Table 2. In the tables, the migration of the Caco-2 cells is expressed as a mean and standard error calculated from the results of 8 samples for each test compound by taking the migration of the control cells as a standard (100%). Incidentally, the symbol “★★” indicates a statistical significance at a P value of <0.001 compared to the control.

| Compound | Migration of Caco-2 cells (%) (SSSR 10 nM) | Migration of Caco-2 cells (%) (SSSR 30 μM) | Effect on migration of Caco-2 cells (in words) (SSSR trifluoroacetate at 30 μM) | Effect on migration of Caco-2 cells (in words) (single agent, SSSR trifluoroacetate at 10 nM) | Migration of Caco-2 cells (%) (FGLM-NH2 20 μM) | Effect on migration of Caco-2 cells (in words) (single agent, FGLM-NH2 trifluoroacetate at 20 μM) |
| --- | --- | --- | --- | --- | --- | --- |
| N=C(N)NCCC[C@H](NC(=O)[C@H](CO)NC(=O)[C@H](CO)NC(=O)[C@@H](N)CO)C(=O)O [SSSR, Ser-Ser-Ser-Arg] (H-SSSR-OH; N-terminus and C-terminus assumed) | 109.7 ± 5.1% | 125.0 ± 2.0 % | promotes the migration of Caco-2 cells | does not promote the migration of Caco-2 cells | – | – |
| CSCC[C@H](NC(=O)[C@H](CC(C)C)NC(=O)CNC(=O)[C@@H](N)Cc1ccccc1)C(N)=O [FGLM-NH2, Phe-Gly-Leu-Met-NH2] (H-FGLM-NH2; N-terminus assumed) | – | – | – | – | 105.9 ± 3.9% | does not promote the migration of Caco-2 cells |
